Laboratory results taken from paper PMC10539501 (Nature Communications, 2023).
Starred links: 1 amine or outer side, 2 acyl side, 3 side chain; linkers in the order of their positions; H or OH if unused. Non-standard residues stand in square brackets, D forms with d. Residues, ends and D or L forms follow the SMILES beside them. X20 = C[C@H](NC(=S)[C@@H](C)N[*:1])C(=O)[*:2]; NMeY = CN[C@@H](Cc1ccc(O)cc1)C(=O)O; NMeL = CN[C@@H](CC(C)C)C(=O)O; dNMeL = CN[C@H](CC(C)C)C(=O)O

What was measured:
[1] = Octanol-water distribution coefficient (logD7.4); conditions: octanol/water, pH 7.4
in vitro [2] = conditions: both, human, plasma
[3] = PAMPA passive permeability; type: in vitro ADME;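 also: passive permeability across an artificial membrane in 96-well pre-coated PAMPA plates, which lack transporters and efflux systems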
Protocol: Encouraged by this, the passive permeability of the analogs was evaluated using an artificial membrane (PAMPA), which measures permeability of compounds in the absence of transporters and efflux systems[32].
96-well BD Corning® pre-coated PAMPA plates were used following the supplier’s protocol, details in Supplementary Information.

pepsin = pepsin (Sus scrofa, UniProt P00791); experiment: in vitro; conditions: simulated gastric fluid, pH 1.2
Protocol: (§1) A stability assessment of the peptides was done in simulated gastric (SGF) and intestinal (SIF) fluids and human liver microsomes. The degradation kinetics of the aliquoted samples at desired time points were analyzed through RP-HPLC.

in vitro [4] = conditions: pig, simulated intestinal fluid
physchem = conditions: pH 7.4
in vitro [5] = conditions: both, human, plasma; remark: listed apart in the source
Protocol: Blood was freshly drawn from three healthy adults, two male and one person of 26–28 year old. […] The plasma was separated by centrifugation. […] For checking metabolic stability, the required volume of plasma was pre-incubated at 37 °C prior to the experiment for 2 min, followed by spiking with the peptides. At different time points, plasma was aliquoted. The supernatant was separated and used for RP-HPLC quantification. Rapid Equilibrium Dialysis (RED) assay was performed to assess the plasma protein binding of the peptides following the supplier’s protocol.

in vitro [6] = conditions: human, microsomes
Protocol: as §1

Caco-2 cells = experiment: in vitro; type: in vitro ADME, human; conditions: Caco-2
Protocol: (§2) The Caco-2 cell (HTB-37^TM from ATCC, procured from NCCS, Pune) monolayer was washed and pre-incubated at 37 °C and 5% CO2 for 30 min with HBSS-HEPES buffer containing 1% DMSO prior to experimentation. The assay was performed 21 days post-seeding of cells. TEER values were measured before starting and after the completion of the assay. Acceptor and donor well concentrations of the peptides and controls were assessed through LC-MS/MS.

in vitro [7] = type: in vitro ADME, human; conditions: human; for Papp A→B: Caco-2, Papp A-B avg
Protocol: as §2

[8] = type: physicochemical
Description: Since reduced solvation of S also contributes to the lipophilicity of the thioamidated peptides, we sought to estimate the global desolvation of the macrocyclic peptides, which is affected by solvation of both N(H) and C(S). […] Thus, we evaluated the desolvation potential of the cyclic peptides by determining the distribution coefficients in heptane-ethylene glycol (logDh/e), a solvent system that provides an experimental estimate of desolvation or hydrogen bond potential[38].
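For Papp A-B + Elacridar avg in this document: Caco-2 monolayers used 21 days after seeding in HBSS-HEPES buffer with 1% DMSO, donor and acceptor levels quantified by LC-MS/MS, TEER checked before and after.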
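For Papp A-B avg (second block) in this document: Caco-2 monolayers used 21 days after seeding in HBSS-HEPES buffer with 1% DMSO, donor and acceptor levels quantified by LC-MS/MS, TEER checked before and after.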
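For Papp A-B set 1 (second block) in this document: Caco-2 monolayers used 21 days after seeding in HBSS-HEPES buffer with 1% DMSO, donor and acceptor levels quantified by LC-MS/MS, TEER checked before and after.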
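For Papp A-B set 2 (second block) in this document: Caco-2 monolayers used 21 days after seeding in HBSS-HEPES buffer with 1% DMSO, donor and acceptor levels quantified by LC-MS/MS, TEER checked before and after.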

Chain of pepsin (P00791 60-385): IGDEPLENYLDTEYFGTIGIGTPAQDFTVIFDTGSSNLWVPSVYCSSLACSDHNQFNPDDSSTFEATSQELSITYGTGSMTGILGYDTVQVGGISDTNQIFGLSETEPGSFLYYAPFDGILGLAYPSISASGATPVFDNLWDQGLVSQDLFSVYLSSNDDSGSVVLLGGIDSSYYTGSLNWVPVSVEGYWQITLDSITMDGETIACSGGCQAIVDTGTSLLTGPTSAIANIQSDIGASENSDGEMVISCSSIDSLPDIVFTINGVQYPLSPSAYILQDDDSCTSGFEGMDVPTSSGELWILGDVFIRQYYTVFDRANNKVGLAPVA
Protocol for human liver microsomes: as §1

C[C@@H]1NC(=O)[C@H](C)NC(=O)[C@H](C)NC(=S)[C@H](C)NC(=O)[C@@H](C)NC(=O)[C@H](C)NC1=O [9b]
logD [1]: -0.7

C[C@@H]1NC(=O)[C@H](C)NC(=O)[C@@H](C)NC(=S)[C@H](C)NC(=O)[C@H](C)NC1=O [8e]
logD [1]: -0.14

CC(C)C[C@@H]1NC(=O)[C@@H](CC(C)C)N(C)C(=O)[C@H](CC(C)C)NC(=O)[C@H](Cc2ccc(O)cc2)NC(=O)[C@H]2CCCN2C(=O)[C@H](CC(C)C)NC1=O [10g] (cyclo(LL[dP]YL[dNMeL]))
half-life (in vitro [2]): 15 h
remaining at 2 h (in vitro [2]): 92%
remaining at 4 h (in vitro [2]): 83%
remaining at 8 h (in vitro [2]): 69%
remaining at 16 h (in vitro [2]): 51%
remaining at 24 h (in vitro [2]): 28%
remaining at 48 h (in vitro [2]): 22%
remaining at 72 h (in vitro [2]): 13%
Papp ([3]; Pe Avg): 2.75 ×10⁻⁶ cm/s
half-life (pepsin): 0.325 h
remaining at 2 min (pepsin): 85%
remaining at 10 min (pepsin): 65%
remaining at 20 min (pepsin): 45%
remaining at 0.5 h (pepsin): 38%
remaining at 1 h (pepsin): 24%
remaining at 2 h (pepsin): 9%
remaining at 4 h (pepsin): 0%
remaining at 8 h (pepsin): 0%
remaining at 12 h (pepsin): 0%
half-life (in vitro [4]): 0.333 h
remaining at 10 min (in vitro [4]): 67%
remaining at 0.5 h (in vitro [4]): 41%
remaining at 1 h (in vitro [4]): 22%
remaining at 2 h (in vitro [4]): 10%
remaining at 4 h (in vitro [4]): 0%
remaining at 8 h (in vitro [4]): 0%
remaining at 12 h (in vitro [4]): 0%
logD (physchem): 1.01
fraction unbound (in vitro [5]): 0.35
microsomal CLint (in vitro [6]): 83 µL/min/mg
remaining at 2 min (in vitro [6]): 89%
remaining at 10 min (in vitro [6]): 67%
remaining at 20 min (in vitro [6]): 41%
remaining at 0.5 h (in vitro [6]): 25%
remaining at 0.75 h (in vitro [6]): 16%
remaining at 1 h (in vitro [6]): 8%
Half lives (human liver microsomes): 16.8

C[C@H]1O[C@@H](O[C@H]2[C@@H](O)C[C@H](O[C@H]3[C@@H](O)C[C@H](O[C@H]4CC[C@@]5(C)[C@H](CC[C@@H]6[C@@H]5C[C@@H](O)[C@]5(C)[C@@H](C7=CC(=O)OC7)CC[C@]65O)C4)O[C@@H]3C)O[C@@H]2C)C[C@H](O)[C@@H]1O [Digoxin, reference compound]
Papp A-B + Elacridar avg (Caco-2 cells): 1.5 ×10⁻⁶ cm/s
Papp A-B avg (second block) (Caco-2 cells): 0.72 ×10⁻⁶ cm/s
Papp A-B set 1 (second block) (Caco-2 cells): 0.79 ×10⁻⁶ cm/s
Papp A-B set 2 (second block) (Caco-2 cells): 0.65 ×10⁻⁶ cm/s
Papp B-A + Elacridar avg (Caco-2 cells): 6.2 ×10⁻⁶ cm/s
Papp B-A avg (second block) (Caco-2 cells): 29.5 ×10⁻⁶ cm/s
Papp B-A set 1 (second block) (Caco-2 cells): 28.5 ×10⁻⁶ cm/s
Papp B-A set 2 (second block) (Caco-2 cells): 30.4 ×10⁻⁶ cm/s
Papp A→B (in vitro [7]): 0.721 ×10⁻⁶ cm/s
Papp B→A (in vitro [7]; Caco-2, Papp B-A avg): 29.5 ×10⁻⁶ cm/s

C[C@@H]1NC(=O)[C@H](C)NC(=O)[C@H](C)NC(=S)[C@@H](C)NC(=O)[C@H](C)NC1=O [8a]
logD [1]: -0.32

C[C@@H]1NC(=O)[C@H](C)NC(=S)[C@H](C)NC(=O)[C@H](C)NC(=O)[C@@H](C)NC1=O [8c]
logD [1]: -0.19

CC(C)NCC(O)COc1cccc2ccccc12 (centres unmarked) [Propranolol, reference compound]
Papp A-B avg (second block) (Caco-2 cells): 16.6 ×10⁻⁶ cm/s
Papp A-B set 1 (second block) (Caco-2 cells): 17.28 ×10⁻⁶ cm/s
Papp A-B set 2 (second block) (Caco-2 cells): 15.87 ×10⁻⁶ cm/s
Papp B-A avg (second block) (Caco-2 cells): 34.1 ×10⁻⁶ cm/s
Papp B-A set 1 (second block) (Caco-2 cells): 37.6 ×10⁻⁶ cm/s
Papp B-A set 2 (second block) (Caco-2 cells): 30.7 ×10⁻⁶ cm/s
Papp A→B (in vitro [7]): 16.6 ×10⁻⁶ cm/s

C[C@@H]1NC(=O)[C@H](C)NC(=S)[C@H](C)NC(=O)[C@@H](C)NC(=O)[C@H](C)NC1=O [8b]
logD [1]: -0.14

CC(C)C[C@@H]1NC(=O)[C@@H](CC(C)C)NC(=O)[C@H](CC(C)C)NC(=O)[C@H](Cc2ccc(O)cc2)N(C)C(=O)[C@H]2CCCN2C(=O)[C@H](CC(C)C)NC1=O [10j] (cyclo(LL[dP][NMeY]L[dL]))
half-life (in vitro [2]): 11 h
remaining at 2 h (in vitro [2]): 75%
remaining at 4 h (in vitro [2]): 61%
remaining at 8 h (in vitro [2]): 56%
remaining at 16 h (in vitro [2]): 38%
remaining at 24 h (in vitro [2]): 25%
remaining at 48 h (in vitro [2]): 9%
remaining at 72 h (in vitro [2]): 4%
Papp ([3]; Pe Avg): 4.59 ×10⁻⁶ cm/s
half-life (pepsin): 0.367 h
remaining at 2 min (pepsin): 86%
remaining at 10 min (pepsin): 78%
remaining at 20 min (pepsin): 59%
remaining at 0.5 h (pepsin): 32%
remaining at 1 h (pepsin): 10%
remaining at 2 h (pepsin): 1%
remaining at 4 h (pepsin): 0%
remaining at 8 h (pepsin): 0%
remaining at 12 h (pepsin): 0%
half-life (in vitro [4]): 0.583 h
remaining at 10 min (in vitro [4]): 70%
remaining at 0.5 h (in vitro [4]): 58%
remaining at 1 h (in vitro [4]): 38%
remaining at 2 h (in vitro [4]): 21%
remaining at 4 h (in vitro [4]): 4.54%
remaining at 8 h (in vitro [4]): 0.525%
remaining at 12 h (in vitro [4]): 0%
logD (physchem): 0.98
fraction unbound (in vitro [5]): 0.21
microsomal CLint (in vitro [6]): 49 µL/min/mg
remaining at 2 min (in vitro [6]): 91%
remaining at 10 min (in vitro [6]): 77%
remaining at 20 min (in vitro [6]): 73%
remaining at 0.5 h (in vitro [6]): 46%
remaining at 0.75 h (in vitro [6]): 35%
remaining at 1 h (in vitro [6]): 9%
Half lives (human liver microsomes): 28.7

C[C@@H]1NC(=O)[C@H](C)NC(=O)[C@H](C)NC(=S)[C@@H](C)NC(=O)[C@H](C)NC(=O)[C@H](C)NC1=O [9a] (cyclo([X20]AAAA))
logD [1]: -0.67

C[C@@H]1NC(=O)[C@H](C)NC(=O)[C@@H](C)NC(=O)[C@H](C)NC(=O)[C@H](C)NC(=S)[C@H](C)NC1=O [9d]
logD [1]: -0.67

C[C@@H]1NC(=O)[C@H](C)NC(=S)[C@H](C)NC(=O)[C@H](C)NC(=O)[C@@H](C)NC(=O)[C@H](C)NC1=O [9c]
logD [1]: -0.59

C[C@@H]1NC(=O)[C@H](C)NC(=O)[C@H](C)NC(=O)[C@@H](C)NC(=O)[C@H](C)NC1=O [compound 8, cyclo(-D-Ala-L-Ala4-)]
logD [1]: -1.46

C[C@@H]1NC(=O)[C@H](C)NC(=O)[C@H](C)NC(=O)[C@@H](C)NC(=S)[C@H](C)NC(=O)[C@H](C)NC1=O [9f]
logD [1]: -0.24

C[C@@H](O)[C@@H]1NC(=O)[C@H](CCCCN)NC(=O)[C@@H](Cc2c[nH]c3ccccc23)NC(=S)[C@H](Cc2ccccc2)NC(=O)[C@@H]2CCCN2C(=O)[C@H](Cc2ccccc2)NC1=O [13f]
half-life (in vitro [2]): 16 h
Papp ([3]; Pe): 1.51 ×10⁻⁶ cm/s
logD (physchem): -0.93
fraction unbound (in vitro [5]): 0.05
logD heptane ethylene glycol [8]: -0.91

CC(C)C[C@@H]1NC(=O)[C@H](Cc2ccc(O)cc2)NC(=O)[C@H]2CCCN2C(=O)[C@H](CC(C)C)N(C)C(=O)[C@H](CC(C)C)NC(=O)[C@@H](CC(C)C)NC1=O [10i] (cyclo(L[NMeL][dP]YL[dL]))
half-life (in vitro [2]): 19 h
remaining at 2 h (in vitro [2]): 92%
remaining at 4 h (in vitro [2]): 83%
remaining at 8 h (in vitro [2]): 74%
remaining at 16 h (in vitro [2]): 58%
remaining at 24 h (in vitro [2]): 38%
remaining at 48 h (in vitro [2]): 26%
remaining at 72 h (in vitro [2]): 4%
Papp ([3]; Pe Avg): 3.2 ×10⁻⁶ cm/s
half-life (pepsin): 0.292 h
remaining at 2 min (pepsin): 86%
remaining at 10 min (pepsin): 58%
remaining at 20 min (pepsin): 47%
remaining at 0.5 h (pepsin): 30%
remaining at 1 h (pepsin): 17%
remaining at 2 h (pepsin): 11%
remaining at 4 h (pepsin): 5%
remaining at 8 h (pepsin): 2.5%
remaining at 12 h (pepsin): 1%
half-life (in vitro [4]): 1.83 h
remaining at 10 min (in vitro [4]): 90%
remaining at 0.5 h (in vitro [4]): 81%
remaining at 1 h (in vitro [4]): 68%
remaining at 2 h (in vitro [4]): 46%
remaining at 4 h (in vitro [4]): 32%
remaining at 8 h (in vitro [4]): 6%
remaining at 12 h (in vitro [4]): 3%
logD (physchem): 1.11
fraction unbound (in vitro [5]): 0.38
microsomal CLint (in vitro [6]): 113 µL/min/mg
remaining at 2 min (in vitro [6]): 93%
remaining at 10 min (in vitro [6]): 54%
remaining at 20 min (in vitro [6]): 53%
remaining at 0.5 h (in vitro [6]): 19%
remaining at 0.75 h (in vitro [6]): 12%
remaining at 1 h (in vitro [6]): 2.73%
Half lives (human liver microsomes): 12.6

C[C@@H]1NC(=O)[C@H](C)NC(=O)[C@@H](C)NC(=O)[C@H](C)NC(=S)[C@H](C)NC(=O)[C@H](C)NC1=O [9e]
logD [1]: -0.54

C[C@@H]1NC(=O)[C@H](C)NC(=O)[C@H](C)NC(=O)[C@@H](C)NC(=O)[C@H](C)NC(=O)[C@H](C)NC1=O [compound 9, cyclo(-D-Ala-L-Ala5-)]
logD [1]: -2.48

C[C@@H]1NC(=O)[C@H](C)NC(=O)[C@@H](C)NC(=O)[C@H](C)NC(=S)[C@H](C)NC1=O [8d]
logD [1]: -0.23
